Molecular target: human GPR40 (Homo sapiens, UniProt O14842)
Assay: Inositol Phosphate Turnover (IP1) Assay 2
Format: cell-based
Parameters: expressed in transfected cells
Conditions: HEK cells stably expressing human GPR40, Table 2, read-out: Human IP1
Protocol: Human and mouse GPR40 stable cell-lines were generated in CHO cells stably expressing NFAT BLA (Beta-lactamase). A human GPR40 stable cell-line was generated in HEK cells stably expressing the aequorin expressing reporter. The expression plasmids were transfected using lipofectamine (Life Technologies) following manufacturer's instructions. Stable cell-lines were generated following drug selection.
The assay is performed in 384-well format. HEK cells stably expressing human GPR40 are plated at 15,000 cells per well in growth medium (DMEM/10% fetal calf serum). Cell plates are then incubated 16 hours at 37 degrees in a 5% CO2 incubator.
Measurement of Inositol Phosphate Turnover (IP1) is performed using the CisBio IP-One kit (Part number 62IPAPEB). After the 16 hour incubation, the cells are washed with HEPES buffer and 10 ul of stimulation buffer (prepared as described in the kit) is added to each well. In a separate plate, compounds are diluted in DMSO (400-fold over the final concentration in the assay well) and 25 nl is acoustically transferred to the appropriate well in the assay cell plate. The plates are then incubated for 60 minutes at 37 degrees. 10 ul of detection buffer (also prepared as described in the IP-One kit) is added to each well and the plates are incubated for 60 minutes in the dark. The plates are then read in a Perkin Elmer EnVision or equivalent reader able to measure FRET.

human GPR40, sequence (O14842 whole entry): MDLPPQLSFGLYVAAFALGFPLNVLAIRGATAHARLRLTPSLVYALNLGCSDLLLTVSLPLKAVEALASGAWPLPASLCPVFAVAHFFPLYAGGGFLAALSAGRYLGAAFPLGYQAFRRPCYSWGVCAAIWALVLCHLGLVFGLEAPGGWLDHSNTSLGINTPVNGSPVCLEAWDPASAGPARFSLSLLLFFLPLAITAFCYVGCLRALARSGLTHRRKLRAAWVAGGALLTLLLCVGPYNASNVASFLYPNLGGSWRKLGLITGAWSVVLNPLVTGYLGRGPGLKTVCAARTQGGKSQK

| Structure (SMILES) | EC50 [nM] |
| --- | --- |
| C[C@H](C(=O)O)[C@H](c1ccc2c(c1)OC(c1ccc(-c3cc(O)ccc3F)cc1)CC2)C1CC1 (single isomer, unassigned) [Example 68] | 1.9 |
| COc1ccc(F)c(-c2ccc([C@H]3CCc4ccc([C@H](C5CC5)[C@H](C)C(=O)O)cc4O3)cc2)c1 (single isomer, unassigned) [Example 64] | 1.1 |
| COc1ccc(F)c(-c2ccc(C3CCc4ccc([C@@H](CC(=O)O)C5CC5)cc4O3)cc2C(OC)C(C)(C)C)c1 (single isomer, unassigned) [Example 125a] | 7.3 |
| COc1ccc(F)c(-c2ccc(C3CCc4ccc([C@H](C5CC5)[C@H](C)C(=O)O)cc4O3)c(C(F)(F)F)n2)c1 (mixture of isomers) [Example 116] | 17 |
| COc1ccc(F)c(-c2ccc(C3CCc4ccc([C@@H](CC(=O)O)C5CC5)cc4O3)cc2[C@@H]2CCCC2(C)C)c1 (mixture of isomers) [Example 103] | 6.2 |
| COc1ccc(F)c(-c2cnc(C3CCc4ccc([C@H](C5CC5)[C@H](C)C(=O)O)cc4O3)c(C)c2)c1 (single isomer, unassigned) [Example 115b] | 17.4 |
| COc1cc(-c2ccc(C3CCc4ccc([C@H](C5CC5)[C@H](C)C(=O)O)cc4O3)cc2)c(F)cn1 (single isomer, unassigned) [Example 117a] | 0.89 |
| COc1ccc(F)c(-c2ccc(C3CCc4ccc(C(C5CCC5)C(C)C(=O)O)cc4O3)cc2)c1 (single isomer, unassigned) [Example 157] | 90 |
| COc1ccc(F)c(-c2ccc(C3CCc4ccc([C@@H](CC(=O)O)C5CC5)cc4O3)cn2)c1 (single isomer, unassigned) [Example 122a] | 88 |
| COc1cc(-c2ccc(C3CCc4ccc([C@@H](CC(=O)O)C5CC5)cc4O3)cc2)c(F)cn1 (stereo partly shown) [Example 71] | 11 |
| COc1cccc(-c2ccc(C3CCc4ccc([C@@H](CC(=O)O)C5CC5)cc4O3)cc2)c1 (stereo partly shown) [Example 79] | 22 |
| COc1ccc(F)c(-c2ccc(C3CCc4ccc([C@H](C5CC5)[C@H](C)C(=O)O)cc4O3)nc2N2CCC2)c1 (mixture of isomers) [Example 132] | 18 |
| COc1cc(-c2ccc(C3CCc4ccc([C@H](C5CC5)[C@H](C)C(=O)O)cc4O3)c(F)c2)c(F)cn1 (single isomer, unassigned) [Example 109a] | 0.17 |
| COc1ccc(F)c(-c2ccc(C3CCc4ccc(C(C5CCC5)C(C)C(=O)O)cc4O3)cc2)c1 (single isomer, unassigned) [Example 158] | 132 |
| COc1ccc(F)c(-c2ccc(C3CCc4ccc([C@@H](CC(=O)O)C5CC5)cc4O3)cc2)c1F (stereo partly shown) [Example 82] | 54 |
| COc1ccc(F)c(-c2ccc(C3CCc4ccc([C@H](C5CC5)[C@@H](C)C(=O)O)cc4O3)nc2)c1 (single isomer, unassigned) [Example 97d] | 43 |
| COc1cc(-c2ccc(C3CCc4ccc([C@H](C5CC5)[C@H](C)C(=O)O)cc4O3)nc2)ccn1 (single isomer, unassigned) [Example 120a] | 4.4 |
| COc1ccc(F)c(-c2ccc(C3CCc4ccc(C(CC(=O)O)C5CC5)cc4O3)cc2C2=CCCC2(C)C)c1 (single isomer, unassigned) [Example 101d] | 90 |
| COc1ccc(F)c(-c2ccc(C3CCc4ccc([C@@H](CC(=O)O)C5CC5)cc4O3)cc2OC(F)(F)F)c1 (mixture of isomers) [Example 99] | 29 |
| COc1ccc(F)c(-c2ccc([C@H]3CCc4ccc([C@@H](CC(=O)O)C5CCC5)cc4O3)cc2)c1 (single isomer, unassigned) [Example 149, (3S)-3-cyclobutyl-3-((R or S)-(2-(2′-fluoro-5′-methoxy-[1,1′-biphenyl]-4-yl)chroman-7-yl)propanoic acid] | 41 |
| COc1ccc(F)c(-c2ccc(C3CCc4ccc(C(CC(=O)O)C5CC5)cc4O3)cc2C2=CCCC2(C)C)c1 (single isomer, unassigned) [Example 101b] | 704 |
| COc1cc(-c2ccc(C3CCc4ccc([C@H](C5CC5)[C@H](C)C(=O)O)cc4O3)cc2)ccn1 (single isomer, unassigned) [Example 118b] | 5.9 |
| COc1cc(-c2ccc(C3CCc4ccc([C@@H](CC(=O)O)C5CC5)cc4O3)c(F)c2)c(F)cn1 (mixture of isomers) [Example 91] | 3.6 |
| COc1ccc(F)c(-c2ccc(C3CCc4ccc(C(C5CCC5)C(C)C(=O)O)cc4O3)cc2)c1 (single isomer, unassigned) [Example 154] | 86 |
| O=C(O)C[C@H](c1ccc2c(c1)OC(c1ccc(-c3ccccc3)cc1)CC2)C1CC1 (mixture of isomers) [Example 80] | 130 |
| COc1ccc(F)c(-c2ccc(C3CCc4ccc([C@H](C5CC5)[C@@H](C)C(=O)O)cc4O3)nc2)c1 (single isomer, unassigned) [Example 97b] | 30 |
| COc1ccc(F)c(-c2ccc(C3CCc4ccc(C(CC(=O)O)C5CC5)cc4O3)cc2C2=CCCC2(C)C)c1 (single isomer, unassigned) [Example 101c] | 58 |
| COc1ccc(F)c(-c2ccc(C3CCc4ccc([C@@H](CC(=O)O)C5CC5)cc4O3)c(F)c2)c1 (mixture of isomers) [Example 88] | 6.5 |
| COc1cc(-c2ccc(C3CCc4ccc([C@H](C5CC5)[C@H](C)C(=O)O)cc4O3)c(F)c2)c(F)cn1 (single isomer, unassigned) [Example 109b] | 1.2 |
| COc1ccc(F)c(-c2ccc(C3CCc4ccc(C(C)CC(=O)O)cc4O3)cc2)c1 (single isomer, unassigned) [Example 141] | 354 |

Other lines, results leading:

| EC50 [nM] | Structure (SMILES) |
| --- | --- |
| 11 | COc1cc(-c2cnc(C3CCc4ccc([C@H](C5CC5)[C@H](C)C(=O)O)cc4O3)c(F)c2)ccn1 (mixture of isomers) [Example 121] |
| 0.17 | COc1cc(-c2ccc(C3CCc4ccc([C@H](C5CC5)[C@H](C)C(=O)O)cc4O3)nc2)c(F)cn1 (single isomer, unassigned) [Example 112a] |
| 1390 | CN1CCOc2cc(-c3ccc(C4CCc5ccc([C@@H](CC(=O)O)C6CC6)cc5O4)c(F)c3)ccc21 (mixture of isomers) [Example 87] |
| 1200 | O=C(O)C[C@H](c1ccc2c(c1)OC(c1ccc(-c3cccc(OCC(F)(F)F)c3)cc1)CC2)C1CC1 (stereo partly shown) [Example 73] |
| 1420 | COc1ccc(F)c(-c2ccc(C3CCc4ccc(C(C)C(C)C(=O)O)cc4O3)cc2)c1 (single isomer, unassigned) [Example 144] |
| 13 | COc1ccc(F)c(-c2ccc(C3CCc4ccc(C(C)C(C)C(=O)O)cc4O3)cc2)c1 (single isomer, unassigned) [Example 142] |
| 774 | COc1ccc(F)c(-c2ccc(C3CCc4ccc(C(C5CCC5)C(C)C(=O)O)cc4O3)cc2)c1 (single isomer, unassigned) [Example 152, (2S,3S)-3-cyclobutyl-3-((R or S)-2-(2′-fluoro-5′-methoxy-[1,1′-biphenyl]-4-yl)chroman-7-yl)-2-methylpropanoic acid] |
| 0.9 | COc1cc(-c2ccc(C3CCc4ccc([C@H](C5CC5)[C@H](C)C(=O)O)cc4O3)cc2C(OC)C2CC2)c(F)cn1 (mixture of isomers) [Example 130] |
| 51 | COc1ccc(F)c(-c2ccc(C3CCc4ccc([C@H](C5CC5)[C@@H](C)C(=O)O)cc4O3)cc2)c1 (single isomer, unassigned) [Example 65] |
| 0.92 | COc1cc(-c2ccc(C3CCc4ccc([C@H](C5CC5)[C@H](C)C(=O)O)cc4O3)nc2)c(F)cn1 (single isomer, unassigned) [Example 112b] |
| 138 | COc1ccc(F)c(-c2ccc(C3CCc4ccc(C(C)C(C)C(=O)O)cc4O3)cc2)c1 (single isomer, unassigned) [Example 147c] |
| 2.8 | COc1ccc(F)c(-c2ccc(C3CCc4ccc([C@H](C5CC5)[C@H](C)C(=O)O)cc4O3)nc2C(OC)C(C)(C)C)c1 (single isomer, unassigned) [Example 135c] |
| 165 | CSc1cccc(-c2ccc(C3CCc4ccc([C@@H](CC(=O)O)C5CC5)cc4O3)cc2)c1 (stereo partly shown) [Example 81] |

Same assay, conditions: HEK cells stably expressing human GPR40, Table 3, read-out: Human IP1 activity

| Structure (SMILES) | EC50 [nM] |
| --- | --- |
| COc1ccc(F)c(-c2ccc([C@@H]3COc4ccc([C@H](C5CC5)[C@H](C)C(=O)O)cc4O3)cc2C(OC)C(C)(C)C)c1 (stereo partly shown) [Example 163] | 2.1 |
| COc1ccc(F)c(-c2ccc([C@@H]3COc4ccc([C@H](C5CC5)[C@H](C)C(=O)O)cc4O3)cc2-c2cccc3ccn(C)c23)c1 [Example 180] | 4.8 |
| COc1ccc(F)c(-c2ccc(C3COc4ccc([C@H](C5CC5)[C@H](C)C(=O)O)c(F)c4O3)cc2)c1 (stereo partly shown) [Example 184] | 1.6 |
| COc1ccc(F)c(-c2ccc(C3COc4ccc([C@H](C5CC5)[C@H](C)C(=O)O)c(F)c4O3)cc2)c1 (single isomer, unassigned) [Example 185] | 2 |

Now from value to compound:

| EC50 [nM] | Structure (SMILES) |
| --- | --- |
| 220 | CC#C[C@@H](CC(=O)O)c1ccc2c(c1)OCC(c1ccc(-c3cc(OC)ccc3F)cc1)O2 (stereo partly shown) [Example 175] |
| 6.9 | COc1ccc(F)c(-c2ccc(C3COc4ccc([C@H](C5CC5)[C@H](C)C(=O)O)cc4O3)cc2OC(F)(F)F)c1 (single isomer, unassigned) [Example 172] |

— US9840512B2, “Antidiabetic bicyclic compounds” (Merck Sharp & Dohme Corp., priority 2013, dated 2017)
